According to patent US20240025891A1 (Celgene Corporation, priority 2020, published 2024):
Read-outs that look alike come from different tables or passages of the source.

Tested on: Onchocerca gutturosa adult male worms
Test: Onchocerciasis in vitro screening model Onchocerca gutturosa (worm motility score and MTT/formazan colorimetry)
Settings: read-out: O. gutt Act class

## O=C(c1sc(Nc2cc(C(F)(F)F)ccn2)nc1-c1ccccn1)N1CCCCC1 [Example 200, piperidin-1-yl(4-(pyridin-2-yl)-2-(4-(trifluoromethyl)pyridin-2-ylamino)thiazol-5-yl)methanone]
Onchocerca gutturosa
  IC50: 500 to 5000 nM

## C[C@@H]1CN(Cc2sc(Nc3cc(C(F)(F)F)ccn3)nc2-c2ccccn2)C[C@H](C)O1 [Example 201, 5-(((2R,6S)-2,6-dimethyl-morpholino)methyl)-4-(pyridin-2-yl)-N-(4-(trifluoromethyl)pyridin-2-yl)thiazol-2-amine]
Onchocerca gutturosa
  IC50: < 200 nM

## O=C(NCC1CCOCC1)c1sc(Nc2cc(C(F)(F)F)ccn2)nc1-c1ccccn1 [Example 203, 4-(pyridin-2-yl)-N-((tetrahydro-2H-pyran-4-yl)methyl)-2-(4-(trifluoromethyl)pyridin-2-ylamino) thiazole-5-carboxamide]
Onchocerca gutturosa
  IC50: 500 to 5000 nM

## O=C(NC1CCCC1)c1sc(Nc2cc(C(F)(F)F)ccn2)nc1-c1ccccn1 [Example 204, N-cyclopentyl-4-(pyridin-2-yl)-2-(4-(trifluoromethyl)pyridin-2-ylamino) thiazole-5-carboxamide]
Onchocerca gutturosa
  IC50: 500 to 5000 nM

## Cc1sc(Nc2cc(OC3CCOCC3)ccn2)nc1-c1ccccn1 [Example 205, 5-methyl-4-(pyridin-2-yl)-N-(4-(tetrahydro-2H-pyran-4-yloxy)pyridin-2-yl)thiazol-2-amine]
Onchocerca gutturosa
  IC50: < 200 nM

## O=C(O)c1sc(Nc2cc(C(F)(F)F)ccn2)nc1-c1ccccn1 [Example 206, 4-(pyridin-2-yl)-2-(4-(trifluoromethyl)pyridin-2-ylamino) thiazole-5-carboxylic acid]
Onchocerca gutturosa
  IC50: < 200 nM

## O=C(c1sc(Nc2cc(C(F)(F)F)ccn2)nc1-c1ccccn1)N1CCCC1 [Example 207, (4-(pyridin-2-yl)-2-(4-(trifluoromethyl)pyridin-2-ylamino)thiazol-5-yl)(pyrrolidin-1-yl)methanone]
Onchocerca gutturosa
  IC50: < 200 nM

## CN(C)CCNC(=O)c1sc(Nc2cc(C(F)(F)F)ccn2)nc1-c1ccccn1 [Example 208, N-(2-(dimethylamino)ethyl)-4-(pyridin-2-yl)-2-(4-(trifluoro-methyl)pyridin-2-ylamino) thiazole-5-carboxamide]
Onchocerca gutturosa
  IC50: < 200 nM

## CN(C)C(=O)c1sc(Nc2cc(C(F)(F)F)ccn2)nc1-c1ccccn1 [Example 209, N,N-dimethyl-4-(pyridin-2-yl)-2-(4-(trifluoromethyl)pyridin-2-ylamino) thiazole-5-carboxamide]
Onchocerca gutturosa
  IC50: < 200 nM

## FC(F)(F)c1ccnc(Nc2nc(-c3ccccn3)c(CN3CCOCC3)s2)c1 [Example 210, 5-(morpholino-methyl)-4-(pyridin-2-yl)-N-(4-(trifluoromethyl)pyridin-2-yl) thiazol-2-amine]
Onchocerca gutturosa
  IC50: < 200 nM

## O=C(NCC(F)(F)F)c1ccnc(Nc2nc(-c3ccccn3)c(CO)s2)c1 [Example 211, 2-(5-(hydroxy-methyl)-4-(pyridin-2-yl)thiazol-2-ylamino)-N-(2,2,2-trifluoroethyl) isonicotinamide]
Onchocerca gutturosa
  IC50: 200 to 500 nM

## CC(=O)N(C)c1cc(C(F)(F)F)cnc1Nc1nc(-c2ccccn2)cs1 [Example 212, N-methyl-N-(2-(4-(pyridin-2-yl)thiazol-2-ylamino)-5-(trifluoro-methyl)pyridin-3-yl) acetamide]
Onchocerca gutturosa
  IC50: < 200 nM

## c1ccc(-c2csc(Nc3ncccn3)n2)nc1 [Example 213, 4-(pyridin-2-yl)-N-(pyrimidin-2-yl)thiazol-2-amine]
Onchocerca gutturosa
  IC50: 500 to 5000 nM

## c1ccc(Nc2nc(-c3ccccn3)cs2)nc1 [Example 214, N,4-di(pyridin-2-yl)thiazol-2-amine]
Onchocerca gutturosa
  IC50: 200 to 500 nM

## Cc1cccnc1Nc1nc(-c2ccccn2)cs1 [Example 215, N-(3-methylpyridin-2-yl)-4-(pyridin-2-yl)thiazol-2-amine]
Onchocerca gutturosa
  IC50: < 200 nM

## FC(F)(F)c1ccc(Nc2nc(-c3ccccn3)cs2)nc1 [Example 217, 4-(pyridin-2-yl)-N-(5-(trifluoromethyl)pyridin-2-yl)thiazol-2-amine]
Onchocerca gutturosa
  IC50: 500 to 5000 nM

## COc1ccc(Nc2nc(-c3ccccn3)cs2)nc1 [Example 218, N-(5-methoxypyridin-2-yl)-4-(pyridin-2-yl)thiazol-2-amine]
Onchocerca gutturosa
  IC50: 200 to 500 nM

## CC(C)c1ccc(Nc2nc(-c3ccccn3)cs2)nc1 [Example 219, N-(5-isopropylpyridin-2-yl)-4-(pyridin-2-yl)thiazol-2-amine]
Onchocerca gutturosa
  IC50: < 200 nM

## Cc1ccnc(Nc2nc(-c3cc(C)ccn3)cs2)c1 [Example 220, N,4-bis(4-methylpyridin-2-yl)thiazol-2-amine]
Onchocerca gutturosa
  IC50: < 200 nM

## c1ccc(-c2ccc(Nc3nc(-c4ccccn4)cs3)nc2)cc1 [Example 221, N-(5-phenylpyridin-2-yl)-4-(pyridin-2-yl)thiazol-2-amine]
Onchocerca gutturosa
  IC50: < 200 nM

## Cc1ccnc(-c2csc(Nc3ncccc3C)n2)c1 [Example 222, N-(3-methylpyridin-2-yl)-4-(4-methylpyridin-2-yl)thiazol-2-amine]
Onchocerca gutturosa
  IC50: 500 to 5000 nM

## Cc1ccnc(Nc2nc(-c3cc(Cl)ccn3)cs2)c1 [Example 223, 4-(4-chloropyridin-2-yl)-N-(4-methylpyridin-2-yl)thiazol-2-amine]
Onchocerca gutturosa
  IC50: < 200 nM

## CCOc1ccnc(-c2csc(Nc3cc(C)ccn3)n2)c1 [Example 224, 4-(4-ethoxypyridin-2-yl)-N-(4-methylpyridin-2-yl)thiazol-2-amine]
Onchocerca gutturosa
  IC50: 200 to 500 nM

## COc1ccc(-c2csc(Nc3cc(C)ccn3)n2)nc1 [Example 225, 4-(5-methoxypyridin-2-yl)-N-(4-methylpyridin-2-yl)thiazol-2-amine]
Onchocerca gutturosa
  IC50: < 200 nM

## Cc1sc(Nc2ccccn2)nc1-c1ccccn1 [Example 227, 5-methyl-N,4-di(pyridin-2-yl)thiazol-2-amine]
Onchocerca gutturosa
  IC50: < 200 nM

## COc1ccc(-c2cnc(Nc3cc(OC(C)C)ccn3)o2)nc1 [Example 228, N-(4-isopropoxy-pyridin-2-yl)-5-(5-methoxypyridin-2-yl)oxazol-2-amine]
Onchocerca gutturosa
  IC50: 500 to 5000 nM

## c1ccc(-c2ccnc(Nc3ncc(-c4ccccn4)o3)c2)cc1 [Example 229, N-(4-phenylpyridin-2-yl)-5-(pyridin-2-yl)oxazol-2-amine]
Onchocerca gutturosa
  IC50: 500 to 5000 nM

## Cc1ccnc(Nc2ncc(-c3ncccc3C)o2)c1 [Example 230, 5-(3-methylpyridin-2-yl)-N-(4-methylpyridin-2-yl)oxazol-2-amine]
Onchocerca gutturosa
  IC50: 500 to 5000 nM

## CC(C)Oc1ccc(-c2cnc(Nc3ncccc3N(C)C)o2)nc1 [Example 231, N2-(5-(5-isopropoxy-pyridin-2-yl)oxazol-2-yl)-N3,N3-dimethyl-pyridine-2,3-diamine]
Onchocerca gutturosa
  IC50: 500 to 5000 nM

## c1ccc(Nc2nc(-c3ccccn3)co2)nc1 [Example 232, N,4-di (pyridin-2-yl)oxazol-2-amine]
Onchocerca gutturosa
  IC50: < 200 nM

## COc1ccc(-c2cc(Nc3cc(OC(C)C)ccn3)n(C)n2)nc1 [Example 233, 4-isopropoxy-N-(3-(5-methoxypyridin-2-yl)-1-methyl-1H-pyrazol-5-yl)pyridin-2-amine]
Onchocerca gutturosa
  IC50: 500 to 5000 nM

## Cc1cccnc1Nc1cc(-c2ccc(OC3CCOCC3)cn2)nn1-c1ccccc1 [Example 234, 3-methyl-N-(1-phenyl-3-(5-(tetrahydro-2H-pyran-4-yloxy)pyridin-2-yl)-1H-pyrazol-5-yl)pyridin-2-amine]
Onchocerca gutturosa
  IC50: 500 to 5000 nM

## Cc1ccnc(Nc2cc(-c3ncccc3C)nn2-c2ccccc2)c1 [Example 235, 4-methyl-N-(3-(3-methylpyridin-2-yl)-1-phenyl-1H-pyrazol-5-yl)pyridin-2-amine]
Onchocerca gutturosa
  IC50: 500 to 5000 nM

## COc1ccc(-c2cc(Nc3cc(OC(C)C)ccn3)[nH]n2)nc1 [Example 236, 4-isopropoxy-N-(3-(5-methoxypyridin-2-yl)-1H-pyrazol-5-yl)pyridin-2-amine]
Onchocerca gutturosa
  IC50: 500 to 5000 nM

## Cc1cccnc1Nc1cc(-c2ccc(OC3CCOCC3)cn2)n[nH]1 [Example 237, 3-methyl-N-(3-(5-(tetrahydro-2H-pyran-4-yloxy)pyridin-2-yl)-1H-pyrazol-5-yl)pyridin-2-amine]
Onchocerca gutturosa
  IC50: 500 to 5000 nM

## c1ccc(-c2ccnc(Nc3cc(-c4ccccn4)n[nH]3)c2)cc1 [Example 238, 4-phenyl-N-(3-(pyridin-2-yl)-1H-pyrazol-5-yl)pyridin-2-amine]
Onchocerca gutturosa
  IC50: < 200 nM

## N- (cyclohexyl- methyl)- 4-(pyridin- 2-yl)-2-(4- (trifluoromethyl) pyridin-2- ylamino) thiazole-5- carboxamide [Example 202]
O. gutturosa adult male worms in vitro
  IC50: 500 to 5000 nM
